# Several values for one entry are separate records, joined by “and”; a condition that tells them apart may be missing. Identical values can stand only once. Like-named read-outs stand apart in the source and are kept apart here.
# Tests used:
# [1] = molecular target: PsApaH (4) (Pseudomonas sp. M30-35, UniProt A0A1Y0KY79); assay: Acetyl-polyamine deacetylase assay; assay type: biochemical; details: single samples (replicates)
# [2] = molecular target: PA1409 (Pseudomonas aeruginosa, UniProt Q9I3T5); assay: Acetyl-polyamine deacetylase assay (positive control); assay type: biochemical; details: for acetate released, g/l / acetate released, mM / mM normalized to enzyme concentration: PA1409 (positive control enzyme), single samples (replicates); for A1-A2: absorbance difference between the two time points; for A1-A2 / (A1-A2)-B: sheet Figure 2d; for (A1-A2)-B: absorbance difference minus mean blank
# [3] = tested on: VsHdaH (1b); assay type: biochemical, Vibrio sp.; details: VsHdaH (1b) 3µM; single samples (replicates)
# [4] = tested on: RsPrpH (1b); assay: Acetyl-polyamine deacetylase assay; assay type: biochemical, Rhizorhabdus sp.; details: RsPrpH 3µM; single samples (replicates)
# [5] = molecular target: RwDmhA (1b) (Rhizorhabdus wittichii, UniProt A0A067XIQ6); assay type: biochemical; details: RwDmhA (1b) 3µM; single samples (replicates)
# [6] = molecular target: KpHdaH (1b) (Klebsiella pneumoniae, UniProt A0A377Z5F6); assay type: biochemical; details: KpKDAC (1b); single samples (replicates)
# [7] = molecular target: T1, BsAcuC (2c) (Bacillus subtilis, UniProt P39067); assay: Acetyl-polyamine deacetylase assay; assay type: biochemical; details: BsAcuC (2c) 3µM; single samples (replicates)
# T1 construct: made in house; host or cells: E. coli BL21 (DE3)
# T1 sequence (P39067 1-387): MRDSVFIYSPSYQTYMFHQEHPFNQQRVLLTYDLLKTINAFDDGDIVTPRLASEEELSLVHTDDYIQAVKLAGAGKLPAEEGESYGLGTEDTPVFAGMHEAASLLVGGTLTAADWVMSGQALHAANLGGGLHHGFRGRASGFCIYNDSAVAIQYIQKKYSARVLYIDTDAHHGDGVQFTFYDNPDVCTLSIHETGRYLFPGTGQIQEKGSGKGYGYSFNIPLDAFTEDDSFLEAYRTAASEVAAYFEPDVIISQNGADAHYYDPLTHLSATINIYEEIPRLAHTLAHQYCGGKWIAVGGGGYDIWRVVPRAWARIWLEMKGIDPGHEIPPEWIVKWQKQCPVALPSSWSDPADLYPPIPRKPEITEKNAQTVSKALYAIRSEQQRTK
# [8] = tested on: VcHdaH (5b); assay: Acetyl-polyamine deacetylase assay; assay type: biochemical, Vibrio cholerae; details: VcHdaH (5b) 6µM; single samples (replicates)
# [9] = molecular target: LcApaH (3) (Legionella cherrii, UniProt A0A0W0SGS1); assay type: biochemical
# [10] = molecular target: LpApaH (3) (Legionella pneumophila, UniProt A0A2S6EWV0); assay type: biochemical
# [11] = LcApaH (3), single samples (replicates)
# LpApaH (3), sequence (A0A2S6EWV0 1-426): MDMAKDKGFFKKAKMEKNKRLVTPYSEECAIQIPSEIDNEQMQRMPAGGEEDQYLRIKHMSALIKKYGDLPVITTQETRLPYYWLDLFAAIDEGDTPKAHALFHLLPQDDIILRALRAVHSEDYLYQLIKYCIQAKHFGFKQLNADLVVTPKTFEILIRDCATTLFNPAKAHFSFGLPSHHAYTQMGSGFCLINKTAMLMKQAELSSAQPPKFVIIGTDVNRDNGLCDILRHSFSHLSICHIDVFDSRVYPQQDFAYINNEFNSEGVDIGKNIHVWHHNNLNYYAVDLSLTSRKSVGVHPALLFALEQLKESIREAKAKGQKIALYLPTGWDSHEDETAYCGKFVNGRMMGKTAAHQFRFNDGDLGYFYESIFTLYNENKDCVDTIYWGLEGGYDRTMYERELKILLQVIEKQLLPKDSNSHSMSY
# PsApaH (4), sequence (A0A1Y0KY79 1-342 limits assumed): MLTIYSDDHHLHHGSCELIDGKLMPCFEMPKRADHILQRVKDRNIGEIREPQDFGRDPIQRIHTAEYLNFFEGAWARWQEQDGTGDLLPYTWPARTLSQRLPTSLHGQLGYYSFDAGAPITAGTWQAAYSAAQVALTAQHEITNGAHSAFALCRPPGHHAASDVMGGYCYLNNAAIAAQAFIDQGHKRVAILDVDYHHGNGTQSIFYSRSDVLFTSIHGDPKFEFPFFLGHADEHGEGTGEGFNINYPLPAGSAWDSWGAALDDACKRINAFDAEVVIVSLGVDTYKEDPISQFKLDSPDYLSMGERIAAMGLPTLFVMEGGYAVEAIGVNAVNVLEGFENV
# RwDmhA (1b), sequence (A0A067XIQ6 1-369): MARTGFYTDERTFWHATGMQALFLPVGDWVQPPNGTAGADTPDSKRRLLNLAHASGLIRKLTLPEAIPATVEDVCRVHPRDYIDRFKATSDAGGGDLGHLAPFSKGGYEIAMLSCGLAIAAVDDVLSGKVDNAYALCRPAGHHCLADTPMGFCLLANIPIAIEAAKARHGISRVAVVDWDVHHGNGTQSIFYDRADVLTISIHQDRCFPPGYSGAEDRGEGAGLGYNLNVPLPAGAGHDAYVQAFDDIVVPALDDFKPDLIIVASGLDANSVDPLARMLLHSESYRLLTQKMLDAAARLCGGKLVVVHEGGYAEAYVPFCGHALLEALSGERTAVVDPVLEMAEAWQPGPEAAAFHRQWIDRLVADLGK
# KpHdaH (1b), sequence (A0A377Z5F6 1-371): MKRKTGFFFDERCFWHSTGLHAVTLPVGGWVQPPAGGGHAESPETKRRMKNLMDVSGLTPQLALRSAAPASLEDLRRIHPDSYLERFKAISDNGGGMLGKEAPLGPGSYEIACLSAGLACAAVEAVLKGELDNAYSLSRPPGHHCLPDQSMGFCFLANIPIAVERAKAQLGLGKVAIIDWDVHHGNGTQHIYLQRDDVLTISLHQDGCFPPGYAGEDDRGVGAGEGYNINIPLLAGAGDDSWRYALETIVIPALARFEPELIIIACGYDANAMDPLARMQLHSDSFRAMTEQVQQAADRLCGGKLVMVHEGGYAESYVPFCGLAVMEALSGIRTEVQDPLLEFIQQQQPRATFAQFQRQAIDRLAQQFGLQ
# LcApaH (3), sequence (A0A0W0SGS1 1-425): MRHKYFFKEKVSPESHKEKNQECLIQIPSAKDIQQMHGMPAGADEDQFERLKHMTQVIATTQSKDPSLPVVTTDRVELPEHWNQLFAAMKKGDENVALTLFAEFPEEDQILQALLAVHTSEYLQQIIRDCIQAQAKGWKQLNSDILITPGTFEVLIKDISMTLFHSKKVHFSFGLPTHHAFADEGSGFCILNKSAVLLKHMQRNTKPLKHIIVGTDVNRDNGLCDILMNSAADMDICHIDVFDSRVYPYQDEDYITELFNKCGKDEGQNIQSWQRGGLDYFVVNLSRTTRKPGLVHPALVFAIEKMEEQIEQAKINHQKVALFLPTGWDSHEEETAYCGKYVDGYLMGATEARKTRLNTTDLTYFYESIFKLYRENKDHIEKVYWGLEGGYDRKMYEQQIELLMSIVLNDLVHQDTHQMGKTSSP
# PA1409, sequence (Q9I3T5 whole entry): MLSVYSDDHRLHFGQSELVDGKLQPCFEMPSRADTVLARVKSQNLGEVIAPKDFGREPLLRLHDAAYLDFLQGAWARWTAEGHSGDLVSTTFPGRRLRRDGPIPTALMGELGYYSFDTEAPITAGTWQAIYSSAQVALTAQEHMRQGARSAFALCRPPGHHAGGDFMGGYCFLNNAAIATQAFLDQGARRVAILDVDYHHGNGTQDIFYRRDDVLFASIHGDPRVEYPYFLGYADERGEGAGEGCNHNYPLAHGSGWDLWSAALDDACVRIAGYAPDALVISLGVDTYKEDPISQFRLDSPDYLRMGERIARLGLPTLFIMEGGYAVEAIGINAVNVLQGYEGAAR
Compound,"acetate released, g/l [2]","acetate released, mM [2]","acetate released, g/l [3]","acetate released, mM [3]",mM normalized to enzyme concentration [3],"acetate released, g/l [4]","acetate released, mM [4]",mM normalized to enzyme concentration [4],"acetate released, g/l [5]","acetate released, mM [5]",mM normalized to enzyme concentration [5],"acetate released, g/l [6]","acetate released, mM [6]",mM normalized to enzyme concentration [6],"acetate released, g/l [7]","acetate released, mM [7]",mM normalized to enzyme concentration [7],"acetate released, g/l [8]","acetate released, mM [8]",mM normalized to enzyme concentration [8],also measured
CC(=O)NCCCCCN [N1-acetyl-cadaverine],0.1346 g/L,2.242 mM,0.004047 g/L and 0.005091 g/L and 0.00483 g/L,0.06739 mM and 0.08478 mM and 0.08044 mM,0.02246 mM and 0.02826 mM and 0.02681 mM,0.02441 g/L and 0.02154 g/L and 0.02285 g/L,0.4065 mM and 0.3587 mM and 0.3804 mM,0.1355 mM and 0.1196 mM and 0.1268 mM,0.01449 g/L and 0.01841 g/L and 0.0252 g/L,0.2413 mM and 0.3065 mM and 0.4196 mM,0.08044 mM and 0.1022 mM and 0.1399 mM,0.005 g/L and 0.003 g/L and 0.002 g/L,0.0755 mM and 0.044 mM and 0.0346 mM,0.0151 mM and 0.0088 mM and 0.00692 mM,0.0001305 g/L and -0.0003916 g/L and -0.01371 g/L,0.002174 mM and -0.006522 mM and -0.2283 mM,0.0007246 mM and -0.002174 mM and -0.07609 mM,0.0009138 g/L and -0.0001305 g/L and 0.0003916 g/L,0.01522 mM and -0.002174 mM and 0.006522 mM,0.002536 mM and -0.0003623 mM and 0.001087 mM,"acetate released, g/l [1]: 0.08943 g/L and 0.09204 g/L and 0.09674 g/L; acetate released, mM [1]: 1.489 mM and 1.533 mM and 1.611 mM; mM normalized to enzyme concentration [2]: 22.4156 mM; A1-A2 [2]: 0.543; (A1-A2)-B [2]: 0.5015; acetate released, g/l [9, 11]: 0.0133 g/L and 0.011 g/L; acetate released, mM [9, 11]: 0.22 mM and 0.18 mM; mM normalized to enzyme concentration [9, 11]: 0.22 mM and 0.18 mM; acetate released, g/l [10]: 0.0236 g/L and 0.04 g/L; acetate released, mM [10]: 0.39 mM and 0.70 mM; mM normalized to enzyme concentration [10]: 0.20 mM and 0.35 mM"
CC(=O)NCCCCN [N1-acetyl-putrescine],,,0.001436 g/L and 0.0003916 g/L and -0.0006527 g/L,0.02391 mM and 0.006522 mM and -0.01087 mM,0.007971 mM and 0.002174 mM and -0.003623 mM,0.003525 g/L and 0.00483 g/L and 0.003003 g/L,0.0587 mM and 0.08044 mM and 0.05 mM,0.01957 mM and 0.02681 mM and 0.01667 mM,0.001436 g/L and 0.006919 g/L and 0.0009138 g/L,0.02391 mM and 0.1152 mM and 0.01522 mM,0.007971 mM and 0.03841 mM and 0.005072 mM,0.01615 g/L and 0.02135 g/L and 0.02198 g/L,0.2105 mM and 0.2784 mM and 0.2865 mM,0.02105 mM and 0.02784 mM and 0.02865 mM,0.001436 g/L and 0.00248 g/L and -0.003264 g/L,0.02391 mM and 0.0413 mM and -0.05435 mM,0.007971 mM and 0.01377 mM and -0.01812 mM,-0.003786 g/L and 0.0001305 g/L and 0.01136 g/L,-0.06304 mM and 0.002174 mM and 0.1891 mM,-0.01051 mM and 0.0003623 mM and 0.03152 mM,"A1-A2 [2]: 0.278 and 0.275; (A1-A2)-B [2]: 0.21 and 0.207; acetate released, g/l [9]: 0.002824 g/L and 0.001479 g/L; acetate released, mM [9]: 0.04702 mM and 0.02463 mM; mM normalized to enzyme concentration [9]: 0.03135 mM and 0.01642 mM"
CC(=O)NCCCNCCCCN [N1-acetyl-spermidine],,,-0.0001305 g/L,-0.002174 mM,-0.0007246 mM,0.0006527 g/L and 0.002219 g/L,0.01087 mM and 0.03696 mM,0.003623 mM and 0.01232 mM,-0.0001305 g/L and -0.0003916 g/L,-0.002174 mM and -0.006522 mM,-0.0007246 mM and -0.002174 mM,0.007111 g/L and 0.006667 g/L,,0.02368 mM and 0.0222 mM,0.001175 g/L and 0.0003916 g/L,0.01957 mM and 0.006522 mM,0.006522 mM and 0.002174 mM,-0.0009138 g/L and 0.0001305 g/L,-0.01522 mM and 0.002174 mM,-0.002536 mM and 0.0003623 mM,"acetate released, g/l [1]: 0.0007937 g/L and 0.001587 g/L; acetate released, mM [1]: 0.01322 mM and 0.02643 mM; A1-A2 [2]: 0.377 and 0.374; (A1-A2)-B [2]: 0.331 and 0.328"
CC(=O)NCCCNCCCCNCCCN [N1-acetyl-spermine],0.1471 g/L and 0.1516 g/L,2.449 mM and 2.524 mM,-0.003525 g/L and 0.003264 g/L and 0.003525 g/L,-0.0587 mM and 0.05435 mM and 0.0587 mM,-0.01957 mM and 0.01812 mM and 0.01957 mM,-0.0006527 g/L and -0.0001305 g/L and -0.004569 g/L,-0.01087 mM and -0.002174 mM and -0.07609 mM,-0.003623 mM and -0.0007246 mM and -0.02536 mM,0.0001305 g/L,0.002174 mM and -0.002174 mM,-0.01812 mM and 0.0007246 mM and -0.0007246 mM,0.02153 g/L and 0.02371 g/L and 0.03188 g/L,0.3585 mM and 0.3948 mM and 0.5309 mM,0.07169 mM and 0.07895 mM and 0.1062 mM,0.002742 g/L and 0.0001305 g/L,0.04565 mM and 0.002174 mM,0.01522 mM and 0.0007246 mM,-0.0009138 g/L and -0.003003 g/L and -0.003264 g/L,-0.01522 mM and -0.05 mM and -0.05435 mM,-0.002536 mM and -0.008333 mM and -0.009058 mM,mM normalized to enzyme concentration [2]: 24.4938 mM and 25.2427 mM
CC(=O)NCCCNCCCCNCCCNC(C)=O [N1/N12 diacetyl-spermine],0.2048 g/L and 0.2032 g/L,3.41 mM and 3.383 mM,0.00248 g/L and 0.0003916 g/L,0.0413 mM and 0.006522 mM,0.01377 mM and 0.002174 mM and 0.003623 mM,0.002219 g/L and 0.001175 g/L,0.03696 mM and 0.01957 mM,0.01232 mM and 0.006522 mM,0.001697 g/L and 0.004569 g/L,0.02826 mM and 0.07609 mM,0.00942 mM and 0.02536 mM,0.007868 g/L and 0.006091 g/L and 0.003807 g/L,0.131 mM and 0.1014 mM and 0.0634 mM,0.0262 mM and 0.02029 mM and 0.01268 mM,0.003525 g/L and 0.003264 g/L and -0.001436 g/L,0.0587 mM and 0.05435 mM and -0.02391 mM,0.01957 mM and 0.01812 mM and -0.007971 mM,0.001436 g/L and 0.0001305 g/L and 0.0006527 g/L,0.02391 mM and 0.002174 mM and 0.01087 mM,0.003986 mM and 0.0003623 mM and 0.001812 mM,"mM normalized to enzyme concentration [2]: 34.0974 mM and 33.8331 mM; acetate released, g/l [9]: 0.00344 g/L; acetate released, mM [9]: 0.06 mM; mM normalized to enzyme concentration [9]: 0.06 mM; acetate released, g/l [10]: 0.003439 g/L and 0.00291 g/L; acetate released, mM [10]: 0.05727 mM and 0.04846 mM; mM normalized to enzyme concentration [10]: 0.02863 mM and 0.02423 mM"

# Reference: PMC11532494 (Nature Communications, 2024)
